Columns and labels:
[1] = test system: mTEC-KO cells; experiment: Reversal of mesenchymal actin cytoskeleton, F-actin phalloidin staining; assay type: cell-based, mouse; conditions: 100 pM TGF-β1 72 h, then inhibitor 24 h; 5 μM SB431542, 1 μM SB203580, 1 μM Y27632, 10 μM U0126, 15 μM SP600125
Protocol: Renal tubular epithelial cells (mTEC-KOs) were treated with 100 pm TGF-β1 for 72 hours and then kinase inhibitors were added for an additional 24 hours. The F-actin in the cells was visualized by staining with phalloidin. mTEC-KO cells were treated with a single kinase inhibitor (A-E) or with SB431542 plus a second kinase inhibitor (F-I). Single kinase inhibitors and concentrations were: 5 μM SB431542 (A), 1 μM SB203580 (B), 1 μM Y27632 (C), 10 μM U0126 (D), or 15 μM SP600125 (E). Combination kinase inhibitors included 5 μM SB431542 with 1 μM SB203580 (F), 1 μM Y27632 (G), 10 μM U0126 (H) or 15 μM SP600125 (I). […] White arrows point to stress fibers.
(§1) Cells were seeded on glass cover slips (Fisher) and cultured as described above. Cells were treated, fixed in 4% paraformaldehyde, and permeabilized in PBS containing 0.1% Triton X-100 for 10 min. Nonspecific sites were blocked with 10% BSA or normal goat serum for 30 min. F-actin was stained at a 1:1000 dilution in 2% BSA of Texas Red-conjugated phalloidin (Sigma) and incubated for 30 min. E-cadherin (BD Biosciences) was diluted at 1:200 in 2% normal goat serum and a secondary antibody (Molecular Probes) at a 1:500 dilution was used for detection. All washes were done in 1× PBS.
To examine the reversibility of the EMT induced by TGF-β1 in mTEC-KO cells, we added inhibitors of kinases previously implicated in EMT. Cells were treated with 100 pM TGF-β1 for 72 hours to induce EMT and kinase inhibitors were added for an additional 24 hours. […] To assess the effects of the kinase inhibitors on EMT, the actin cytoskeleton was examined by phalloidin staining.
Since EMT effects are mediated by multiple cellular pathways and none of the single kinase inhibitors reverted the EMT phenotype, we applied combinations of two inhibitors. […] Cortical actin bordering the cell-cell junctions was restored by both combinations. The addition of either the MEK1 inhibitor or the JNK inhibitor to the […] inhibitor had no detectable effect on the mesenchymal phenotype of the cells (FIGS. 4H and I).

[2] = test system: Ksp-cadherin; experiment: Ksp-cadherin mRNA by quantitative RT-PCR after EMT; assay type: cell-based, mouse; conditions: 100 pM TGF-β1 72 h, then inhibitor(s) for an additional 24 hours
Protocol: In a six well plate, 50,000 cells were seeded and appropriately treated. Total RNA was isolated using RNAeasy Miniprep kit (Qiagen) and quantified by UV spectrophotometer. 1.5 μg of RNA was converted by reverse transcriptase into cDNA using the OmniScript kit (Qiagen). […] 3′. cDNA was amplified in an Opticon 2 PCR machine (MJ Research) and labeled by the DyNAmo SYBR Green qPCR Kit. The amplification was carried out in the following manner: initial denaturation for 10 min at 95° C., denaturation for 10 sec at 95° C., annealing for 30 sec at the appropriate temperature, and extension for 30 sec at 72° C. Standards were created from Pfu (Stratagene) amplified PCR products purified by gel purification. Glyceraldehyde-3-phosphate dehydrogenase (GAPDH) was used as an internal control to normalize gene expression.
The effects of individual or combinations of kinase inhibitors on the expression of several genes altered by EMT were measured by quantitative RT-PCR.

[3] = test system: E-cadherin; experiment: E-cadherin immunofluorescence at cell junctions after EMT; assay type: cell-based, mouse; conditions: 100 pM TGF-β1 72 h, then inhibitors for an additional 36 hours; 5 μM SB431542, 5 μM SB203580, 5 μM Y27632, 15 μM SP600125
Protocol: FIG. 6: E-cadherin is restored by combining TβRI kinase inhibitor with either the ROCK inhibitor or the p38 MAPK inhibitor. E-cadherin is found between mTEC-KO cells (A). mTEC-KO cells were treated with 100 pM TGF-β1 for 72 hours to induce mesenchymal state in which E-cadherin is lost (B). Single inhibitors or combinations of two inhibitors were added for an additional 36 hours. […] E-cadherin reformed between cells that used combination kinase inhibitors which included 5 μM SB431542 with 5 μM SB203580 (G), 5 μM Y27632 (H), but not 15 μM SP600125 (I). Cell lysates from mTEC-KOs were analyzed by western blot using antibodies to E-cadherin and β-tubulin (J). Control epithelial cells were grown without TGF-β (Lane 3). The cells were then treated for an additional 48 hours with no inhibitor (Lane 2), single inhibitors (5 μM Y27632, Lane 6; 5 μM SB203580, Lane 7; 5 μM SB431542, Lane 8) or with the combination of 5 μM SB431542 with either 15 μM SP600125 (Lane 1), 5 μM Y27632 (Lane 4) or 5 μM SB203580 (Lane 5).
as §1
An important criterion for epithelium restoration is re-expression of the cell-cell junction adhesion protein E-cadherin. mTEC-KO cells were treated with 100pm TGF-β1 for 72 hours to induce EMT and then kinase inhibitors were added for an additional 24-48 hours (FIG. 6).

[4] = test system: MMP-9; experiment: MMP-9 mRNA by quantitative RT-PCR after EMT; assay type: cell-based, mouse; conditions: 100 pM TGF-β1 72 h, then inhibitor(s) for an additional 24 hours
Protocol: (§2) FIG. 5: Restoration of epithelial gene expression patterns by kinase inhibitors illustrates a requirement for two kinase inhibitors to restore cadherin expression. mTEC-KO cells were treated with 100 pm TGF-β1 for 72 hours to induce EMT. Single kinase inhibitors or inhibitor combinations were added, cells were grown for an additional 24 hours and harvested for preparation of RNA. Ksp-cadherin (A), SM22 (B), and MMP-9 (C) mRNA levels were measured by quanitative RT-PCR. Significant differences between the untreated (No TGF-β1) cells versus cells treated with TGF-β1 or with TGF-β1 followed by inhibitor are indicated with an asterisk (*) (P<0.05, n=9). Significant differences between single inhibitors versus combination inhibitors are indicated by a letter (a,b,c) over the bar showing the combination. Each letter refers to the single inhibitor in the graph (indicated by the letter below the name of the inhibitor).
(§3) In a six well plate, 50,000 cells were seeded and appropriately treated. Total RNA was isolated using RNAeasy Miniprep kit (Qiagen) and quantified by UV spectrophotometer. 1.5 μg of RNA was converted by reverse transcriptase into cDNA using the OmniScript kit (Qiagen). Primers used for Q-PCR were: KSP-Cadherin forward-5′ CTG CAC ACA GM GTC CCT GA 3′, reverse 5′ CCTTGTCGCCACTAGAAAGC 3′; MMP-9-SuperArray (Frederick, Md.) PPM03661A; SM22 forward 5′GCA GTC CM MT TGA GM GA 3′, reverse 5′ CTGTTGCTGCCCATTTGAAG 3′; PAI-1 forward 5′TTCAGCCCTTGCTTGCCTC 3′, reverse 5′[…] 3′. cDNA was amplified in an Opticon 2 PCR machine (MJ Research) and labeled by the DyNAmo SYBR Green qPCR Kit. The amplification was carried out in the following manner: initial denaturation for 10 min at 95° C., denaturation for 10 sec at 95° C., annealing for 30 sec at the appropriate temperature, and extension for 30 sec at 72° C. Standards were created from Pfu (Stratagene) amplified PCR products purified by gel purification. Glyceraldehyde-3-phosphate dehydrogenase (GAPDH) was used as an internal control to normalize gene expression. […]

[5] = test system: mTEC-KO cells; experiment: Blocking of TGF-β1-induced EMT (cell morphology, phalloidin staining); assay type: cell-based, mouse; conditions: 10 μM SB431542 together with TGF-β1 for 72 hours
Protocol: FIG. 1: TGF-β1 induces EMT in renal tubular epithelial cells. mTEC-KOs were incubated for 72 hours without TGF-β1 (A,D), with 100 pM TGF-β1 (B, E) or with TGF-β1 and 10 μM SB431542. Cell morphology was observed by brightfield phase microscopy at 100× magnification (A-C). […] White arrows point to stress fibers.
TGF-β knockout Murine Renal Epithelial Tubular Cells (mTEC-KO) were maintained in Renal Epithelial Cell Growth Medium (Cambrex, Md.) containing 0.25% Fetal Bovine serum (FBS), supplemented with a Bullet Kit that contained: epidermal growth factor, insulin, hydrocortisone, GA-1000, epinephrine, T3, transferrin (Cambrex), as well as penicillin and streptomycin (Gibco) in a 37° humidified 5% CO2 incubator.
Cells were seeded on glass cover slips (Fisher) and cultured as described above. Cells were treated, fixed in 4% paraformaldehyde, and permeabilized in PBS containing 0.1% Triton X-100 for 10 min. Nonspecific sites were blocked with 10% BSA or normal goat serum for 30 min. F-actin was stained at a 1:1000 dilution in 2% BSA of Texas Red-conjugated phalloidin (Sigma) and incubated for 30 min. E-cadherin (BD Biosciences) was diluted at 1:200 in 2% normal goat serum and a secondary antibody (Molecular Probes) at a 1:500 dilution was used for detection. All washes were done in 1× PBS. […]

[6] = test system: PAI-1; experiment: PAI-1 mRNA expression by quantitative RT-PCR in TGFβ-induced mesenchymal cells; assay type: cell-based, mouse; conditions: 100 pM TGF-β1 72 hours, then 5 uM inhibitor for 24 hours
Protocol: TGFβ1 ligand (100 pM) was added to mTEC-KOs for 72 hours, followed by the addition of 5 μM SB431542 plus 100 pM TGFβ1 for an additional time 24 hours. Cell lysates were used to prepare RNA which was examined by quantitative RT-PCR for PAI-1. Significant differences in PAI-1 expression level between cells treated with TGF-β1 alone versus cells treated with TGF-β1 and then with inhibitor for the indicated times are indicated with an asterisk (*) (P<0.05, n=9).
as §3, with “C.” for “C. Standards were created from Pfu (Stratagene) amplified PCR products purified by gel purification. Glyceraldehyde-3-phosphate dehydrogenase (GAPDH) was used as an internal control to normalize gene expression.”

[7] = test system: SM22; experiment: SM22 mRNA by quantitative RT-PCR after EMT; assay type: cell-based, mouse; conditions: 100 pM TGF-β1 72 h, then inhibitor(s) for an additional 24 hours
Protocol: as §2, §3

[8] = cited from earlier work
[9] = test system: mouse distal tubular epithelial cells; conditions: 100 ng/ml BMP7 for 48 hours; cited from earlier work
[10] = 300 ug/kg human BMP7 every other day beginning at week three; cited from earlier work

Molecule | reversal of mesenchymal actin stress fiber morphology, single kinase inhibitor [1] | Ksp-cadherin mRNA level [2] | E-cadherin at cell junctions (localization) [3] | MMP-9 mRNA level [4] | SM22 mRNA level [7] | other results
NC(=O)c1ccc(-c2nc(-c3ccc4c(c3)OCO4)c(-c3ccccn3)[nH]2)cc1 [SB431542] | did not reverse the mesenchymal actin stress fiber morphology | increased Ksp-cadherin to intermediate levels | caused an increase in reforming E-cadherin at cell junctions | efficiently reduced SM22 and MMP-9 expression to pre-EMT levels | efficiently reduced SM22 and MMP-9 expression to pre-EMT levels | TGF-β1-induced transition of epithelial cells into mesenchymal cells [5]: blocked the TGF-β1-induced transition of the mTEC-KO epithelial cells into mesenchymal cells; actin stress fibers (phalloidin) when inhibitor is given with TGF-β1 [5]: very few actin stress fibers were observed; PAI-1 mRNA level [6]: sufficient to reduce the mRNA level
HGF: hepatocyte growth factor | – | – | – | – | – | reversal of EMT in vivo [8]: only provided a partial reversal of EMT
C[C@@H](N)[C@H]1CC[C@H](C(=O)Nc2ccncc2)CC1 [Y27632] | fail to reverse the mesenchymal actin cytoskeleton | increased Ksp-cadherin to intermediate levels | caused an increase in reforming E-cadherin at cell junctions | increased the level of MMP9 expression | partially reduced SM22 levels | –
C[S+]([O-])c1ccc(-c2nc(-c3ccncc3)c(-c3ccc(F)cc3)[nH]2)cc1 (stereo not shown) [SB203580] | fail to reverse the mesenchymal actin cytoskeleton | led to a further decrease in Ksp-cadherin expression | caused an increase in reforming E-cadherin at cell junctions | did not reduce SM22 or MMP9 transcript levels | did not reduce SM22 or MMP9 transcript levels | –
N#CC(=C(/N)Sc1ccccc1N)/C(C#N)=C(\N)Sc1ccccc1N [U0126] | fail to reverse the mesenchymal actin cytoskeleton | – | – | – | – | –
BMP7: TGFβ superfamily member that acts through distinct receptors and Smad proteins (protein, UniProt P18075 293-431, looked up) Bone morphogenetic protein 7: STGSKQRSQNRSKTPKNQEALRMANVAENSSSDQRQACKKHELYVSFRDLGWQDWIIAPEGYAAYYCEGECAFPLNSYMNATNHAIVQTLVHFINPETVPKPCCAPTQLNAISVLYFDDSSNVILKKYRNMVVRACGCH | – | – | – | – | – | reversal of TGF-β1 induced EMT (E-cadherin expression, epithelial morphology) [9]: reversed; renal pathology (mortality, renal function) [10]: reversed the renal pathology as indicated by a decline in mortality, and improvement in renal function
